# Measurements reported in article PMC11396935, “Exploration of Compounds with 2-Phenylbenzo[d]oxazole Scaffold as Potential Skin-Lightening Agents through Inhibition of Melanin Biosynthesis and Tyrosinase Activity” (Molecules, 2024).
# Where two headings read alike, the source gives them in different places.
# Key:
# mushroom tyrosinase [1] = target: T1, mushroom tyrosinase (Agaricus bisporus, UniProt C7FF04); assay: Mushroom tyrosinase activity inhibition assay (L-tyrosine or L-dopa as substrate); format: biochemical; settings: for IC50: mushroom tyrosinase, 37 °C, mean ± SEM of triplicates
# T1 construct: purchased Sigma-Aldrich (St. Louis, MO, USA)
# Protocol: 3.3. Tyrosinase Activity Assay Using Mushroom Tyrosinase
# The tyrosinase inhibitory activity of the 2-phenylbenzoxazoles was evaluated using a mushroom tyrosinase activity assay, following a previously described method. An aqueous substrate mixture, consisting of phosphate buffer (pH 6.5; 17.2 mM) and L-tyrosine or L-dopa (345 μM), was prepared. A 96-well plate containing the test sample in dimethyl sulfoxide (DMSO) solution (10 μL), aqueous mushroom tyrosinase solution (20 μL; 200 units), and aqueous substrate mixture (170 μL) in each well was incubated at 37 °C for 15 min for L-dopa and 30 min for L-tyrosine, respectively.
# [2] = test system: B16F10 tyrosinase in situ; settings: compounds 1, 2, 5 μM; kojic acid 5 μM; α-MSH + IBMX 72 h; excess L-dopa
# B16F10 cells [3] = assay: B16F10 cell viability assay (EZ-Cytox); format: cell-based, murine; settings: 0, 1, 2, 5 μM
# Protocol: Since the 2-phenylbenzoxazole compounds 3, 8, and 13 were identified as being potent mushroom tyrosinase inhibitors, they were used in B16F10-cell-based experiments. Before assessing the biological impact of compounds 3, 8, and 13 in the B16F10 cells, the effect of these compounds on B16F10 cell viability was evaluated. The cells were treated with the compounds at concentrations of 0, 1, 2, and 5 μM for 48 and 72 h, respectively.
# 3.7. B16F10 Cell Viability Assay
# Test samples (3, 8, and 13) were added to each well at final concentrations of 0, 1, 2, and 5 μM and cultivated for 48 and 72 h, respectively. Each well was treated with 10 μL of EZ-Cytox solution (EZ-1000®, DoGenBio, Seoul, Republic of Korea) and cultivated for 2 h. The absorbance of each well was measured at 450 nm using an ELISA reader.
# B16F10 cells [4] = assay: Cellular melanin content assay in B16F10 cells; format: cell-based, murine; settings: 72 h; for melanin content in B16F10 cells: 1, 2, 5 μM, α-MSH 1 μM + IBMX 200 μM; for melanin content in B16F10 cells at 5 μM vs kojic acid: compound 5 μM, kojic acid 5 μM, α-MSH + IBMX
# Protocol: The B16F10 cells were exposed to each compound (1, 2, and 5 μM) for 1 h. Following this, stimulators (1 μM α-MSH [α-melanocyte-stimulating hormone] and 200 μM IBMX [3-isobutyl-1-methylxanthine]) were treated for 72 h. Kojic acid (5 μM) was utilized as a comparative control.
# 3.8. Cellular Melanin Content Level Assay in B16F10 Cells
# The effects of compounds 3, 8, and 13 on B16F10 cellular melanin production were investigated using a previously reported method. B16F10 cells (5 × 10^3 cells per well) were seeded in a 6-well plate and cultured under the same conditions as the cell culture for 24 h. […] Stimulators, including 1 μM α-melanocyte-stimulating hormone (α-MSH) and 200 μM 3-isobutyl-1-methylxanthine (IBMX), were then added. After 72 h of cultivation, the cells were rinsed with PBS, detached from the bottom of each well using Trypsin-EDTA, and centrifuged for 10 min at 10,000× g and 4 °C. The obtained pellets were lysed with 100 μL of 1N-NaOH solution for 1 h at 60 °C and transferred to a 96-well plate. The optical density was measured at 405 nm using an ELISA reader. Normalization was conducted using a Pierce BCA Protein Assay Kit (Thermo Scientific, MA, USA).
# Melanin content (%) = (ΔODsam/ΔODcon) × 100%, where ODsam and ODcon represent the optical densities of the sample and control, respectively.
# mushroom tyrosinase [5] = target: T1, mushroom tyrosinase; assay: Kinetic study using mushroom tyrosinase (Lineweaver–Burk and Dixon plots); format: biochemical; settings: for inhibition mode (Lineweaver–Burk plots): substrate L-dopa 0.5–16 mM; for Ki: substrate L-dopa 1, 2, 4, 8 mM, read-out: inhibition constant Ki (Dixon plot)
# Protocol: For the inhibition mechanism study of the 2-phenylbenzoxazole compounds, kinetic studies of mushroom tyrosinase were conducted. […] Kinetic experiments were performed using various concentrations of L-dopa. Lineweaver–Burk plots were obtained for each compound by plotting the inverse of the L-dopa concentration against the inverse of the initial rate of dopachrome production (Figure 4). In the Lineweaver–Burk plots (Figure 4B,C), the lines for compounds 8 and 13 merged at one point on the y-axis, whereas the lines for 3 (Figure 4A) merged at one point in the second quadrant.
# These Dixon plots were obtained by plotting the inhibitor concentration against the inverse of the initial dopachrome production rate (Figure 5). The four lines for each Dixon plot were merged at one point in the second quadrant. The absolute x-coordinate of each merged point represents the Ki value of each compound.
# 3.4. Kinetic Study Experiment Using Mushroom Tyrosinase
# Mushroom tyrosinase was incubated with 2-phenylbenzoxazole inhibitors (3, 8, or 13) in the presence of various concentrations (0.5–16 mM) of L-dopa to measure the initial dopachrome production rate. An aqueous substrate mixture, consisting of phosphate buffer (pH 6.5; 17.2 mM) and L-dopa (345 μM), was prepared. A 96-well plate containing the inhibitor DMSO solution (10 μL), aqueous mushroom tyrosinase solution (20 μL; 20 units), and aqueous substrate mixture (170 μL) in each well was incubated for 20 min at 37 °C. During incubation, the absorbance at 475 nm was recorded at 5 min intervals using an ELISA reader to prepare Lineweaver–Burk plots for each inhibitor.
# [6] = test system: B16F10 cellular tyrosinase; assay: Cellular tyrosinase activity assay in B16F10 cells; format: cell-based, murine; settings: 1, 2, 5 μM; kojic acid 5 μM; α-MSH 1 μM + IBMX 200 μM, 72 h
# Protocol: To investigate the origins of the anti-melanogenic effects of compounds 3, 8, and 13, their impacts on B16F10 cellular tyrosinase inhibition were evaluated. The experiment utilized a similar experimental method and the same concentrations as those used in the melanin content experiment. Compounds 3, 8, and 13 (1, 2, and 5 μM), kojic acid (5 μM: positive control), and stimulators (1 μM α-MSH and 200 μM IBMX) were used in this experiment. Prior to treatment with the stimulators for 72 h, the test samples (3, 8, 13, and kojic acid) were pre-treated for 1 h.
# 3.9. Cellular Tyrosinase Activity Assay in B16F10 Cells
# The effects of compounds 3, 8, and 13 on B16F10 cellular tyrosinase activity were assessed using a previously reported method. B16F10 cells were seeded, treated with the samples and stimulators, and cultured for 72 h in the same manner as for the cellular melanin content assay. To lyse the cultured cells, a lysis buffer was prepared containing 1 mM phenylmethylsulfonyl fluoride, 50 mM phosphate buffer, and 1% Triton X-100 (5:90:5, v/v/v). The cultivated cells were lysed by adding the prepared lysis buffer (100 µL) after washing twice with PBS. The lysed cells were centrifuged for 30 min at 4 °C and 10,000 g after freezing for 1 h at −80 °C. The supernatants (80 µL) and 10 mM L-dopa (20 µL) were added to each well of a 96-well plate and cultivated for 10 min at 37 °C. The optical density was measured at 475 nm using an ELISA reader. Normalization was performed using a Pierce BCA Protein Assay Kit.
# [7] = substrate L-dopa, 15 min, read-out: IC50 Values, L-Dopa
# [8] = substrate L-tyrosine, 30 min, read-out: IC50 Values, L-Tyrosine
# T1 sequence (C7FF04 1-392 limits assumed): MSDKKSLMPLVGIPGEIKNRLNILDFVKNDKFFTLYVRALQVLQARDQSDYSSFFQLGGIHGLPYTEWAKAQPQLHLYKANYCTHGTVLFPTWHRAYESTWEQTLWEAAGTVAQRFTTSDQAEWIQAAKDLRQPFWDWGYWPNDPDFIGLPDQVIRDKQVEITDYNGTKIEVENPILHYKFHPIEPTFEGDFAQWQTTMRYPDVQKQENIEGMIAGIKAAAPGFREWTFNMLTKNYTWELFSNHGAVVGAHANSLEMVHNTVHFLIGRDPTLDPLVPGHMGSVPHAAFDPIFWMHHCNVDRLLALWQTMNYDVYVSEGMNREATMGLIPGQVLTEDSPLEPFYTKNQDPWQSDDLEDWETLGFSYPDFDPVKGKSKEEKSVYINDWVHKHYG
smiles,measurement,setting,value
"Cc1ccc2nc(-c3ccc(O)cc3O)oc2c1 [Compound 3, 4-(6-Methylbenzo[d]oxazol-2-yl)benzene-1,3-diol]",IC50,mushroom tyrosinase [1]; [7],16.8 ± 0.57 µM
same,IC50,mushroom tyrosinase [1]; [8],0.51 µM
same,tyrosinase potency relative to kojic acid,mushroom tyrosinase [1]; substrate L-tyrosine,28 times
same,"melanin formation, in situ tyrosinase activity in B16F10 cells",[2],reduced melanin formation in a concentration-dependent manner
same,"cytotoxicity to B16F10 cells, 48 h",B16F10 cells [3],not cytotoxic
same,"cytotoxicity to B16F10 cells, 72 h",B16F10 cells [3],weak cytotoxicity at the highest concentration tested
same,melanin content in B16F10 cells,B16F10 cells [4],decreased the melanin content in a concentration-dependent manner
same,melanin content in B16F10 cells at 5 μM vs kojic acid,B16F10 cells [4],decreased the melanin content levels much more strongly than kojic acid
same,inhibition mode (Lineweaver–Burk plots),mushroom tyrosinase [5],mixed-type inhibitor
same,B16F10 cellular tyrosinase activity,[6],reduced the stimulator-induced tyrosinase activity in a concentration-dependent manner
"Oc1ccc(-c2nc3ccc(Cl)cc3o2)c(O)c1 [Compound 8, 4-(6-Chlorobenzo[d]oxazol-2-yl)benzene-1,3-diol]",IC50,mushroom tyrosinase [1]; [7],20.4 ± 1.99 µM
same,IC50,mushroom tyrosinase [1]; [8],2.22 ± 0.16 µM
same,"melanin formation, in situ tyrosinase activity in B16F10 cells",[2],reduced melanin formation in a concentration-dependent manner
same,"cytotoxicity to B16F10 cells, 48 h",B16F10 cells [3],not cytotoxic
same,"cytotoxicity to B16F10 cells, 72 h",B16F10 cells [3],did not show cytotoxicity
same,melanin content in B16F10 cells,B16F10 cells [4],decreased the melanin content in a concentration-dependent manner
same,melanin content in B16F10 cells at 5 μM vs kojic acid,B16F10 cells [4],decreased the melanin content levels much more strongly than kojic acid
same,inhibition mode (Lineweaver–Burk plots),mushroom tyrosinase [5],competitive inhibitors
same,Ki,mushroom tyrosinase [5],12.5 µM
same,B16F10 cellular tyrosinase activity,[6],reduced the stimulator-induced tyrosinase activity in a concentration-dependent manner
"Cc1ccc2oc(-c3ccc(O)cc3O)nc2c1 [Compound 13, 4-(5-Methylbenzo[d]oxazol-2-yl)benzene-1,3-diol]",IC50,mushroom tyrosinase [1]; [7],20.8 ± 1.02 µM
same,IC50,mushroom tyrosinase [1]; [8],3.5 ± 0.07 µM
same,"melanin formation, in situ tyrosinase activity in B16F10 cells",[2],reduced melanin formation in a concentration-dependent manner
same,"cytotoxicity to B16F10 cells, 48 h",B16F10 cells [3],not cytotoxic
same,"cytotoxicity to B16F10 cells, 72 h",B16F10 cells [3],did not show cytotoxicity
same,melanin content in B16F10 cells,B16F10 cells [4],decreased the melanin content in a concentration-dependent manner
same,inhibition mode (Lineweaver–Burk plots),mushroom tyrosinase [5],competitive inhibitors
same,Ki,mushroom tyrosinase [5],17.2 µM
same,B16F10 cellular tyrosinase activity,[6],reduced the stimulator-induced tyrosinase activity in a concentration-dependent manner
